In ChEMBL document CHEMBL1157384, “Apratoxin D, a potent cytotoxic cyclodepsipeptide from papua new guinea collections of the marine cyanobacteria Lyngbya majuscula and Lyngbya sordida” (J Nat Prod, 2008):

Test system: NCI-H460
Assay: Cytotoxicity against human H460 cells after 48 hrs by MTT assay
Type: functional, cell-based
Conditions: NCI-H460, 48 h

CC[C@H](C)[C@H]1C(=O)N2CCC[C@H]2C(=O)O[C@H]([C@@H](C)CC(C)(C)C)C[C@@H](C)C[C@H](O)[C@H](C)C2=N[C@@H](/C=C(\C)C(=O)N[C@@H](Cc3ccc(OC)cc3)C(=O)N(C)[C@@H](C)C(=O)N1C)CS2 [APRATOXIN D]
IC50: 2.6 nM
